{
  "source": "patent US20230131334A1",
  "about": "“COMPANION DIAGNOSTIC BIOMARKERS OF EGFR INHIBITOR” (SYNTEKABIO, INC., priority 2020, published 2023)",
  "system": "A549 cell line",
  "test": "WST-1 assay of drug responsiveness to pelitinib in A549 with LEPRE1 overexpression or inhibited expression",
  "format": "cell-based",
  "conditions": "Homo sapiens",
  "protocol": "The expression level of LEPRE1 was identified by Western blot, and a test (WST-1 assay) of drug responsiveness to pelitinib was carried out. […] It was confirmed that LEPRE1 overexpression had the effect of increasing drug sensitivity to pelitinib. […] It was confirmed that the inhibited LEPRE1 expression had the effect of reducing drug sensitivity to pelitinib.\nThe loss-of-function effect whereby drug sensitivity to pelitinib decreases was confirmed when LEPRE1 expression was inhibited.",
  "data": [
    {"molecule": "CCOc1cc2ncc(C#N)c(Nc3ccc(F)c(Cl)c3)c2cc1NC(=O)/C=C/CN(C)C", "note": "[pelitinib, Pelitinib]", "values": [
      {"measurement": "IC50", "setting": "A549, A549 overexpressing LEPRE1/pcDNA3.1, then treated with pelitinib", "result": "1030 ± 40.6", "unit": "nM"},
      {"measurement": "IC50", "setting": "A549, A549 overexpressing pcDNA3.1 (empty vector), then treated with pelitinib", "result": "1670 ± 520", "unit": "nM"},
      {"measurement": "IC50", "setting": "A549, A549 transfected with LEPRE1 siRNA (si2293), then treated with pelitinib", "result": "4010 ± 1010", "unit": "nM"},
      {"measurement": "IC50", "setting": "A549, A549 transfected with negative control, then treated with pelitinib", "result": "1730 ± 187", "unit": "nM"}
    ]}
  ]
}
